According to US10508088B2, “Methods using HDAC11 inhibitors” (FORMA Therapeutics, Inc., priority 2016, dated 2019):

Assays:
H1650 SP cells = test: Tube formation assay with stem-like side population NSCLC cells; type: cell-based; conditions: H1650 SP cells on Matrigel
Description: The angiogenic tubule assay was performed with the sorted side population cells to analyze vascular mimicry. The H1650 side population cells were sorted as mentioned above and they were further grown on Matrigel (BD Biosciences) to form angiogenic tubule-like structures. 100 μl of thawed Matrigel was layered on the wells of 96-well tissue culture plates and allowed to polymerize at 37° C. for 30 min. Sorted H1650 SP cells were layered (12000 cells/100 μl of Matrigel) on the polymerized matrigel and incubated overnight at 37° C. Tubule formation was assessed under bright field using EVOS FL microscope system and images were acquired with EVOS software (Life Technologies Inc., USA). For the treatment with HDAC11 inhibitors, appropriate concentrations of the compounds were added to the cells when they were seeded on Matrigel for the tubule formation assay.

A549 cells = test: Cell migration scratch assay; type: cell-based
Description: The effects of HDAC11 inhibition on cell migration were determined using a scratch assay. A549 cells (120,000-150,000 cells/2 ml/well) were grown in 6-well tissue culture plates (BD Biosciences). A scratch was made using a sterile 2 μl pipette tip in each well. The 10% FBS containing medium was added to the wells after a wash with DPBS. To assess the effect of the HDAC11 inhibitors on cell migration, the inhibitors were added in the medium at appropriate concentrations. The cells were further incubated at 37° C. The images were taken on Day 0 and after every 24 hours using EVOS FL microscope system and EVOS software (Life Technologies Inc) and the cell migration was compared to the Day 0 of treatment.

[1] = tested on: H1650 cells co-cultured with primary CAFs; test: Co-culture assay with cancer cells and cancer associated fibroblasts; type: cell-based; conditions: 1:1 co-culture
Description: The effects of selective HDAC11 inhibition on cancer cells and cancer associated fibroblasts (CAFs) were determined in a co-culture assay. The cells were first trypsinized and collected in serum containing medium and were further incubated in same media at 37° C. for 15-20 min for recovery. The cells were resuspended in serum free media at 1×10^6 cells/ml density and stained with 10 uM of cytotracker green (Cancer associated fibroblasts) or cytotracker red dye (H1650 cells) (Life Technologies Inc) at 37° C. for 90 min. The stained cells were washed twice with serum free medium to remove excess dye at 1500 rpm for 5 min. The cytotracker green stained CAFs were mixed with cytotracker red stained H1650 cells in 1:1 ratio and grown in 96-well tissue culture plate overnight. The HDAC11 inhibitors were then added to the mixed adhered cells (CAFs+H1650) at appropriate concentrations. The images were taken on Day 0 and after every 24 hours using EVOS FL microscope system and EVOS software (Life Technologies Inc).

[2] = molecular target: Full length human recombinant HDAC11 (Homo sapiens (Human), UniProt Q96DB2); test: Enzymatic HDAC11 assay, electrophoretic mobility shift; type: biochemical; conditions: substrate FAM-RHKK(tri-fluor-Ac)-NH2, read-out: HDAC11 IC50 Range
Full length human recombinant HDAC11, sequence (Q96DB2 whole entry): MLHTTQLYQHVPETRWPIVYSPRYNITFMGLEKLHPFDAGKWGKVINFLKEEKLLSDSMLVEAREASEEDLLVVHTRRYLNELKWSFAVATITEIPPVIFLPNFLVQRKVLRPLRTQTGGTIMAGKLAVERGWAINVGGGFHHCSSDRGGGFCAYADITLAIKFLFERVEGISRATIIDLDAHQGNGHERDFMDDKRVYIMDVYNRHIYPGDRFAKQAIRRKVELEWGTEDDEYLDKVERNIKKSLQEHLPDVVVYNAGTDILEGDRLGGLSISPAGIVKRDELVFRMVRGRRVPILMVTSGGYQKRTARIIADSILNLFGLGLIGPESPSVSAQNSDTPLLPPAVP
In short: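 Baculovirus-expressed enzyme (10 nM) with 2 μM FAM-RHKK(tri-fluor-Ac)-NH2 in 100 mM HEPES pH 7.5, 25 mM KCl, 0.1% BSA, 0.01% Triton X-100, 1% DMSO at 25 °C. Substrate and product separated by microfluidic electrophoresis; inhibition from product/(substrate+product) ratio. IC50 by 4-parameter fit over 12 concentrations.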

[3] = tested on: STAT3 phosphorylation in HEL 92.1.7 cells; test: STAT3 and STAT5 phosphorylation western blot assay; type: cell-based; conditions: HEL 92.1.7, western blot
Description: (§1) The effects of selective HDAC11 inhibition on STAT3 and […] phosphorylation in HEL 92.1.7 cells were determined by western blot. Cells were treated with HDAC11 inhibitors and lysed in RIPA buffer (Sigma-Aldrich, St. Louis, Mo.) supplemented with protease inhibitors (Roche, Basel, Switzerland) and phosphatase inhibitors (Sigma P5726). Protein concentrations were determined with Pierce BCA protein assay kit (Thermo Fisher Scientific, Waltham, Mass.). Proteins were separated on a 4-12% Bis-Tris gradient electrophoresis gel (Life Technologies, Carlsbad, Calif.) and transferred onto a nitrocellulose membrane. The membrane was then blocked in either 5% nonfat dry milk or 5% BSA followed by incubation with primary antibodies at 4° C. overnight. Antibodies for p-STAT5 (Abcam 32364), STAT5 (Cell Signaling 9358), p-STAT3 (Cell Signaling 9145) and STAT3 (Cell Signaling 9139) were used. β-actin was used as loading control.

[4] = tested on: STAT5 phosphorylation in HEL 92.1.7 cells; test: STAT3 and STAT5 phosphorylation western blot assay; type: cell-based; conditions: HEL 92.1.7, western blot
Description: as §1

Row | SMILES | tubule formation (H1650 SP cells) | cell migration (A549 cells) | growth of H1650 cells co-cultured with primary CAFs [1] | IC50 [2] [nM] | STAT3 phosphorylation [3] | STAT5 phosphorylation [4]
1 | O=C(NO)c1cccc2c1C[C@]1(CCN(Cc3ccc(Cl)c(C(F)(F)F)c3)C1=O)C2 [HDTK054, (S)-1′-(4-chloro-3-(trifluoromethyl)benzyl)-N-hydroxy-2′-oxo-1,3-dihydrospiro[indene-2,3′-pyrrolidine]-4-carboxamide] | inhibited tubule formation | impaired | inhibit the growth | < 500 | – | –
2 | O=C(NO)c1cccc(Nc2nc3cc(Cl)c(Cl)cc3o2)c1 [HDTK010, 3-((5,6-dichlorobenzo[d]oxazol-2-yl)amino)-N-hydroxybenzamide] | – | – | – | – | inhibited | inhibited
